Experimental findings from US20250304700A1, “ANTI-BLOOD DENDRITIC CELL ANTIGEN 2 ANTIBODIES AND USES THEREOF” (Biogen MA Inc., priority 2012, published 2025) are described below.

“And” between values parts separate entries of the source, which are not always exact repeats. Equal values may be shown once. “Also recorded” adds a separate entry of the source.

The subject of assay [1] is TLR9-induced IFNα production in whole blood. Put plainly: Pre-incubation (internalization) before TLR9 stimulation, IFNα in whole blood. Format: cell-based, human. To be noted: up to 9 hours pre-incubation, then 200 μg/mL CpG-A for 18 hours. On the procedure:
The following experiment was conducted to ascertain whether BIIB059-mediated receptor internalization affected IFN inhibition. […] At each time point after pre-incubation, cells were challenged with 200 μg/mL CpGA and incubated for an additional 18 hours at 37° C. Supernatants were collected for use in IFNα ELISA assays (PBL InterferonSource). The assays were performed according to the manufacturer's protocol. FIG. 19B is a representative experiment of 3 independent experiments performed. […] In addition, we have previously shown that bivalent binding was necessary for anti-BDCA2 mediated IFN inhibition.
At each time point after pre-incubation, cells were stimulated with 200 μg/mL TLR9 ligand (CpG-A) and incubated for an additional 18 hours at 37° C. Supernatants were collected for use in IFNα ELISA assays (PBL InterferonSource).

In assay [2] the test system is TLR9-induced cytokines and chemokines by purified pDCs. Put plainly: ELISA/multiplex of cytokines from CpG-A stimulated purified pDCs. Format: cell-based, human. The procedure:
Shown in FIG. 17 are the amounts of secreted IFNα and IL-6 measured from a representative donor of three tested healthy donors.
BDCA2 ligation suppresses the ability of pDCs to produce type I IFNs in response to TLR ligands (see FIG. 16). […] Specifically, pDCs from human healthy donors were isolated using a two-step magnetic bead separation procedure (MACS kit, Miltenyi Biotec). […] The plates containing pDCs were incubated for 18 hours at 37° C. and supernatants collected for use in ELISA or multiplex assays to measure concentrations of inflammatory cytokines and chemokines.
On the technique in general: In an ELISA, binding on a coated surface is turned into a signal by an enzyme label.

The test system of assay [3] is BDCA2 receptor on pDCs. Put plainly: BDCA2 and bound BIIB059 on pDC surface after dosing cynomolgus monkeys. Format: in vivo, cynomolgus monkey. From the text:
At the same time point (1 hr), some free BDCA2 was observed (13%, 74%, 72% of baseline MFI).
EC10-50-90 curves were generated in GraphPad Prism software using a four-parameter fit.

In assay [4] the test system is CD62L on the surface of human pDCs. Put plainly: CD62L surface expression on pDCs by flow cytometry. The assay is classed as cell-based. To be noted: whole blood, 1 hour at 37° C., no stimulation. On the procedure: The MFI of CD62L was determined by gating on pDCs as defined by CD14−, CD20−, HLA-DR+ and CD123+.
Metalloproteinase are known to induce CD62L shedding from the surface of immune cells. […] The surface expression of CD62L was assayed by flow cytometry. GM6001 inhibited the BIIB059-mediated down-modulation CD62L in a dose dependent manner (FIG. 45).

[5] abbreviates: 5 μM CPG-A, increasing concentrations of BIIB059.

Chain of BDCA2 receptor on pDCs (as listed by the source): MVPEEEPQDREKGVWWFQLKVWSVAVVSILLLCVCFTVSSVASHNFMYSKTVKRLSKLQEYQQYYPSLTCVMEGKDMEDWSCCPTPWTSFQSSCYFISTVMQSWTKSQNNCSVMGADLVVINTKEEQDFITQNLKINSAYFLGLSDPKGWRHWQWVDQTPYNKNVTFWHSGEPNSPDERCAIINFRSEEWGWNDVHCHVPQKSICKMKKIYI

Consider “BIIB059: humanized IgG1 anti-BDCA2 antibody, mature heavy chain SEQ ID NO: 4 and mature light chain SEQ ID NO: 3”, for which the “effect of pre-incubation on IFNα inhibition” value in assay [1] was “did not affect IFN inhibition; also recorded: did not alter the ability of BIIB059 to inhibit”. For the same substance, in assay [2] (1 μM CPG-A, 10 μg/mL antibody, 18 hours), the “TLR9-induced IFNα, TNFα, IL-6, CCL3, CCL4, CCL5” value is “potently inhibited”. Moreover, in assay [2] (setting [5]), the IFNα production entry was “potently inhibited” and the IL-6 production result was “greatly reduced”. Also, the “ability to inhibit CPG-A-induced IFNα by pDCs” value in assay [2] (BIIB059 compared with 24F4A-Agly) is given as “undistinguishable”. Moreover, the “BIIB059 on the pDC surface” value in assay [3] (IV 10 mg/kg or 1 mg/kg, from 1 hour post injection) is “no BIIB059 was detected on the surface”. Moreover, the “free BDCA2 (BIIB059-A647 staining)” value in assay [3] (IV 10 mg/kg or 1 mg/kg, through 38 days, except monkey 5) is on record as “no free BDCA2”. The “EC10 (ug/mL), internalization of BDCA2” value in assay [3] (IV 10 mg/kg, monkeys 3, 8, 10, 10 mg/kg) was 0.100 µg/mL and 0.095 µg/mL and 0.114 µg/mL. Besides, in assay [3] (SC 0.2 mg/kg), the “free BDCA2 receptor over time” value is reported as “no free BDCA2 receptor was detected until day 14”. For the same substance, the “BIIB059 on the pDC surface” value in assay [3] (SC 0.2 mg/kg, at 1 hour, disappeared by 6 hours) is reported as “briefly observed on the surface of pDCs”. In assay [3] (mean of all dosed monkeys), the “EC10 (ug/mL), Mean” value was found to be 0.064 µg/mL and the “EC90 (ug/mL), Mean” value stood at 0.359 µg/mL. Besides, the “CD62L expression on the surface of pDCs” value in assay [4] is recorded as “dose-dependent decrease”.
